The source of these data is patent US20060009433A1, “Neuroprotective spirostenol pharmaceutical compositions” (priority 2003, published 2006).

Entries after “also recorded” stand apart in the source; their conditions may differ.

Series [1] deals with PC12 cells. As to the kind of experiment: Trypan blue uptake, Aβ-treated PC12 cells (Example II). The series is classed as cell-based, rat. On the procedure:
(§1) PC12 cells (rat pheochromocytoma neurons) from ATCC (Manassas, Va.) were cultured at 37° C. and 5% CO2 in RPMI 1640 medium devoid of glutamine and supplemented with 10% fetal bovine serum and 5% horse serum. Yao Z, Drieu K and Papadopoulos V., The Gingko biloba extract EGb 761 rescues PC12 neuronal cells from β-amyloid-induced cell death by inhibiting the formation of (3-amyloid-derived diffusible neurotoxic ligands, Brain Res, 889, 181-190 (2001). Cells were seeded in 96-well plates (8×10^4 cells/well). After an overnight period of incubation, increasing concentrations of aggregated Aβ (0.1, 1 and 10 μM) were added to the cells in the presence or absence of the indicated concentrations of the SP compounds to be tested. After 72-hours incubation time various parameters, markers of cell viability, were determined. Mouse MA-10 tumor Leydig cells were maintained at 37° C. in DMEM/Ham's F12 (Biofluids, Rockville, Md.) medium supplemented with 5% heat-inactivated fetal calf serum and 2.5% horse serum in 5% CO2. Cells were plated on 96-well plates at the density of 2.5×10^4 cells/well for overnight. […]
Cell viability was measured using the trypan blue exclusion method as we previously described. […] After washing three times with PBS, 0.1 N NaOH was added to the cells and trypan blue was quantified using the Victor quantitative detection spectrophotometer at 450 nm.

Series [2] concerns PC12 cells (rat pheochromocytoma neurons). As to the kind of experiment: MTT cytotoxicity assay, Aβ-induced neurotoxicity in PC12 cells (Example II). To be noted: for neuroprotective effect compared with SP222 / neuroprotection against 0.1 μM Aβ-induced neurotoxicity / neuroprotection against 1 μM Aβ-induced neurotoxicity / neuroprotection against 10 μM Aβ-induced neurotoxicity: MTT; for neuroprotection against 0.1 μM Aβ-induced neurotoxicity / neuroprotection against 1 μM Aβ-induced neurotoxicity / neuroprotection against 10 μM Aβ-induced neurotoxicity: compounds at 30 and 50 μM, 72 hours; for neuroprotection against Aβ-induced neurotoxicity (structure/activity discussion): PC12 cells. The series is classed as cell-based. The procedure: (§2) PC12 cells (rat pheochromocytoma neurons) from ATCC (Manassas, Va.) were cultured at 37° C. and 5% CO2 in RPMI 1640 medium devoid of glutamine and supplemented with 10% fetal bovine serum and 5% horse serum. Yao Z, Drieu K and Papadopoulos V., The Gingko biloba extract EGb 761 rescues PC12 neuronal cells from β-amyloid-induced cell death by inhibiting the formation of (3-amyloid-derived diffusible neurotoxic ligands, Brain Res, 889, 181-190 (2001). Cells were seeded in 96-well plates (8×10^4 cells/well). After an overnight period of incubation, increasing concentrations of aggregated Aβ (0.1, 1 and 10 μM) were added to the cells in the presence or absence of the indicated concentrations of the SP compounds to be tested. After 72-hours incubation time various parameters, markers of cell viability, were determined. Mouse MA-10 tumor Leydig cells were maintained at 37° C. in DMEM/Ham's F12 (Biofluids, Rockville, Md.) medium supplemented with 5% heat-inactivated fetal calf serum and 2.5% horse serum in 5% CO2. Cells were plated on 96-well plates at the density of 2.5×10^4 cells/well for overnight. The cells were stimulated with the indicated concentrations of the various SP compounds in 0.2 ml/well serum-free medium for 2 hours. The culture medium was collected and tested for progesterone production by radioimmunoassay.
The cellular toxicity of Aβ was assessed using the 3-(4,5-dimethylthiazol-2-yl)-2,5-diphenyl tetrazolium bromide (MTT) assay (Trevigen, Gaithersburg, Md.). Briefly, 10 μl of the MTT solution were added to the cells cultured in 100 μl medium. After an incubation period of 4 hours, 100 μl of detergent were added and cells were incubated overnight at 37° C. Formazan blue formation was quantified at 600 nm and 690 nm using the Victor quantitative detection spectrophotometer (EGG-Wallac, Gaithersburg, Md.) and the results expressed as (DO600-DO690). […] Liu Y and Schubert D, Steroid hormones block amyloid fibril-induced 3-(4,5-dimethylthiazol-2-yl)-2,5-diphenyltetrazolium bromide (MTT) formazan exocytosis: relationship to neurotoxicity, J. Neurochem., 19, 1639-1662 (1998). For that reason, additional cytotoxicity and cell viability assays were used.
Yao et al., J. Neurochem., 83, 1110-1119 (2002); and Yao et al., The Gingko biloba extract EGb 761 rescues PC12 neuronal cells from β-amyloid-induced cell death by inhibiting the formation of β-amyloid-derived diffusible neurotoxic ligands, Brain Res., 889, 181-190 (2001). To stay close to the concentrations of Aβ present in AD brain, 0.1-10 μM concentrations of Aβ were used. The compounds tested for their neuroprotective properties were examined at 30 and 50 μM concentrations (FIGS. 9-15).

The test system of series [3] is PC12 cells. As to the kind of experiment: Cellular ATP levels (ATPLite-M) in Aβ-treated PC12 cells. To be noted: 0.1 and 1.0 μM Aβ. The series is classed as cell-based, rat. On the procedure: as §2
Cellular ATP concentrations were measured using the ATPLite-M™ luminescence assay (Packard BioSciences Co.). For this assay, cells were cultured on black 96-well ViewPlate™ and the ATP concentrations were measured on a TopCount NXT™ counter (Packard BioSciences Co.) following the recommendations of the manufacturer.
(In ATP-based viability assays light output follows the ATP content of the culture.)

Series [4] deals with PC12 cells. The series can be described thus: Membrane potential (CytoLite luminescence) in Aβ-treated PC12 cells. To be noted: 10 μM Aβ. The series is classed as cell-based, rat. The procedure: as §2
Cells viability was also assessed using the luminescence-based kit CytoLite™ (Packard BioScience Co.) according to the recommendations of the manufacturer. Briefly, cells were cultured and treated in 96-well plates and after 72-hours incubation time, 25 μl of Activator solution was added to the cells followed by 150 μl of Amplifier solution. Luminescence was measured on a TopCount NXT™ counter (Packard BioSciences Co.) following a 5 minute precount delay.

The target of series [5] is T1, Aβ (Homo sapiens, UniProt P05067).
T1 construct: Aβ1-42 peptide was purchased from American Peptide Co; purchased American Peptide Co. (Sunnyvale, Calif.)
As to the kind of experiment: CPBBA displacement of radiolabeled 22R-hydroxycholesterol from Aβ (Example II). The series is classed as binding. To be noted: 100 μM unlabeled compound; 50 μM Aβ. On the procedure: At the end of the incubation time, samples were separated by 1.5% agarose (Type I-B) gel electrophoresis under native conditions and transferred to nitrocellulose membrane (Schleicher&Schuell, Keene, N.H.) in 10×SSC buffer. The membrane was exposed to tritium-sensitive screen and analyzed by phosphoimaging using the Cyclone Storage phosphor system (Packard BioScience). Image-densitometric analysis was performed using the OptiQuant software (Packard BioScience). […] Low molecular weight unincorporated 22R-hydroxycholesterol and derivatives are separated and eliminated during electrophoresis.

Series [6] has as its target T1, Aβ. The series can be described thus: Immunoblot analysis of Aβ polymerization and ADDL formation. The series is classed as biochemical. The note with it: SP233 1, 10, 100 μM. The procedure:
Increasing concentration of Aβ (0.1, 1 and 10 μM) were incubated in PC12 culture medium for 24 hours and 72 hours at 37° C. under 5% CO2 with or without increasing concentrations of SP233 (1, 10 and 100 μM). At the end of the incubation time, samples were separated by 4-20% Tris-Glycine gel electrophoresis (Invitrogen) under native conditions at 125V for 2 hours and transferred to nitrocellulose membrane (Hybond™ ECL™, Amersham Pharmacia Biotech) at […] for 30 minutes. Non-specific adsorption of the antibodies was blocked by incubating the nitrocellulose in 5% milk. The blots were treated for immunodetection of Aβ species using a polyclonal antibody to Aβ that recognizes a 30 amino acid peptide of the Aβ protein (Zymed Laboratories, San Francisco, Calif.). Membranes were incubated in primary antibody for 1 hour at room temperature at a dilution of 1:2,000. Then, membranes were incubated in the secondary antibody at a dilution of 1:1,000 for 1.5 hours at room temperature. The blots were visualized using the ECL™ Western Blotting Analysis System (Amersham Biosciences). Image-densitometric analysis was performed using the OptiQuant software (Packard BioScience). This method allows for the separation, visualization and identification of Aβ complexes, polymers and ADDLs.
On the technique in general: In western blotting, separated proteins are transferred to a membrane and probed.

Series [7] has as its system MA-10 mouse tumor Leydig cells. The series can be described thus: Steroid (progesterone) formation in MA-10 Leydig cells. The series is classed as in vitro ADME. The note with it: MA-10 cells, 2 hours. The procedure: as §1
Progesterone production by MA-10 cells was measured by radioimmunoassay using anti-progesterone antisera (ICN, Costa Mesa, Calif.), following the conditions recommended by the manufacturer. […] Radioimmunoassay data was analyzed using the MultiCalc software (EG&G Wallac, Gaithersburg, Md.). […]

Series [8] deals with NT2 cells. The series can be described thus: LDH and MTT assays, NT2 cell viability. The note with it: LDH and MTT; 25-50 μM; 3-day treatment. For orientation: Tetrazolium assays rely on reduction of a dye to a coloured formazan, in cell work by metabolically active cells.
Series [9] relates to rat PC12 neuronal cells. The series can be described thus: MTT assay, Aβ1-42-induced cytotoxicity in PC12 cells (Example I). To be noted: MTT; for neuroprotective effect against Aβ-induced neurotoxicity: Aβ1-42.
The subject of series [10] is NT2 cells. The series can be described thus: BrdU assay, NT2 cell proliferation. The series is classed as cell-based, human.
In series [11] the test system is NT2 cells. The series can be described thus: NT2 cell differentiation, phase-contrast morphology. The series is classed as cell-based, human. To be noted: 25 μM; 3, 6 and 12 days (comparators 6 days).

T1 sequence (P05067 672-713): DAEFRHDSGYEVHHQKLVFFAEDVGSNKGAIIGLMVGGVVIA

Turning to `CCCCCC(=O)O[C@H]1CC[C@@]2(C)C(=CC[C@H]3[C@@H]4C[C@@H]5O[C@@]6(CC[C@H](C)CO6)[C@@H](C)[C@@H]5[C@@]4(C)CC[C@@H]32)C1` [SP233, (22S,25S)-(20S)-spirost-5-en-3β-yl hexanoate], the “dose-dependence of the neuroprotective effect” value in series [1] (FIG. 15, 0.1, 1.0 and 10.0 μM Aβ) is “dose-dependent”. Besides, the “effect on Aβ-induced cell death (trypan blue uptake)” value in series [1] (SP233 at 30 and 50 μM, 0.1, 1 and 10 μM Aβ) is “inhibited the Aβ-induced cell death”. Besides, in series [2] (0.1 μM Aβ), the “protection against 0.1 μM Aβ” value is recorded as 75% and the “neuroprotective effect compared with SP222” value is given as “significantly more robust effect than SP222”. In [2], the “neuroprotection against 0.1 μM Aβ-induced neurotoxicity” value is reported as “displayed neuroprotective activity”, the “neuroprotection against 1 μM Aβ-induced neurotoxicity” value is on record as “maintained their neuroprotective properties”, the “neuroprotection against 10 μM Aβ-induced neurotoxicity” value was “kept this property; also recorded: exhibited neuroprotective activity” and the “neuroprotection against Aβ-induced neurotoxicity (structure/activity discussion)” value is “the most potent compound”. In series [2] (all assays used), the “neuroprotection in vitro against Aβ at concentrations as low as” value is 10 µM. The “reversal of Aβ-induced decrease in ATP levels” value in series [3] is on record as “able to reverse; also recorded: blocked, although in part”. In addition, the “neuroprotective effect against 10 μM Aβ, membrane potential luminescence” value in series [4] was “replicated by the raise of the signal”. Besides, the “displacement of radiolabeled 22R-hydroxycholesterol binding to Aβ” value in series [5] is listed as 35%. Further, the “amount of Aβ polymeric species” value in series [6] was “small dose-dependent increase”. The “trimeric and tetrameric ADDLs” value in series [6] (10 μM Aβ, 24 and 72 hours) is “dose-effect relationship is also observed; also recorded: decreased in a dose-dependent manner”. Besides, the “amount of Aβ monomeric species” value in series [6] (1 and 10 μM Aβ, 24 and 72 hours) is recorded as “decreases in a dose-dependent manner”. The “metabolism to final steroid products / steroid formation” value in series [7] was “could not be metabolized to final steroid products; also recorded: unable to induce steroid formation”.

`CC(=O)[C@H]1CC[C@H]2[C@@H]3CC=C4C[C@@H](O)CC[C@]4(C)[C@H]3CC[C@]12C` [pregnenolone, 5-pregnen-3β-ol-20-one]: the “cytotoxicity at high concentrations” value in [8] was “cytotoxic”. Moreover, the “neuroprotective effect against Aβ-induced neurotoxicity” value in [9] is “could not be replicated”. Further, in [9] (absence of Aβ), the “PC12 cell viability, steroid alone” value is given as “toxic to the cells”. Further, in series [10], the “NT2 cell proliferation at 50 μM” value is reported as “significantly inhibited”.

In the case of `CC(C)CC[C@H](O)[C@@H](C)[C@H]1CC[C@H]2[C@@H]3CC=C4C[C@@H](O)CC[C@]4(C)[C@H]3CC[C@]12C` [22S-hydroxycholesterol, 5-cholesten-3β, 22S-diol], in [11], the “effect on NT2 cell morphology (differentiation)” value is “could not be replicated”. Also, the “cytotoxicity at high concentrations” value in series [8] is recorded as “cytotoxic”. Also, the “PC12 cell viability, steroid alone at 100 μM” value in series [9] (100 μM steroid) is listed as “neurotoxic”. In addition, in [9], the “neuroprotective effect against Aβ-induced neurotoxicity” value was “failed to protect; also recorded: inactive”. The “NT2 cell proliferation at 25 μM” value in series [10] (25 μM) was “significantly inhibited”. Also, in series [10], the “NT2 cell proliferation at 50 μM” value is on record as “significantly inhibited”.

Consider `CCC(=O)O[C@H]1CC[C@@]2(C)C(=CC[C@H]3[C@@H]4C[C@@H]5O[C@@]6(CC[C@H](C)CN6C(C)=O)[C@@H](C)[C@@H]5[C@@]4(C)CC[C@@H]32)C1` [SP238, (20α)-25S-methyl-N-acetyl-(22S,26)-azacyclofurost-5-en-3β-yl propanoate], for which, in [2] (0.1 μM Aβ), the “neuroprotective effect compared with SP222” value is recorded as “significantly more robust effect than SP222”. In addition, in series [2], the “neuroprotection against 0.1 μM Aβ-induced neurotoxicity” value is given as “displayed neuroprotective activity”, the “neuroprotection against 1 μM Aβ-induced neurotoxicity” value was “maintained their neuroprotective properties”, the “neuroprotection against 10 μM Aβ-induced neurotoxicity” value is reported as “kept this property; also recorded: exhibited neuroprotective activity” and the “neuroprotection against Aβ-induced neurotoxicity (structure/activity discussion)” value was “able to protect PC12 cells”. Moreover, the “reversal of Aβ-induced decrease in ATP levels” value in series [3] was “did not block; also recorded: no effect on maintaining ATP levels”. In addition, the “neuroprotective effect against 10 μM Aβ, membrane potential luminescence” value in [4] is recorded as “replicated by the raise of the signal”. In addition, in series [5], the “displacement of radiolabeled 22R-hydroxycholesterol binding to Aβ” value was found to be 44%.
